In patent EP1433789A1, “Pyrrolopyrazines and their use as selective apoptosis inducers” (Aponetics AG, priority 2002, dated 2004):

Key:
Format in all cases: cell-based, human
HeLa [1] = test: PI staining for cell cycle distribution; parameters: key: 0 indicates no occurrence at all; 1 for weak; 2 for strong occurrence; settings: HeLa 10 µM, 24 h
Description: (§1) 1 - 2*10^5 cells are seeded into 24 well tissue culture plates and incubated for 24 h prior to compound addition. Compounds are added for 24 h in a final concentration of 3 µM or 10 µM. Adherent cells are harvested by trypsinization. The cell suspensions are fixed by adding 2 parts ice cold ethanol 100% while vortexing. Then the samples are stored for > 2 h at-20°C. Subsequently the cells are washed with PBS once and resuspended in 250 µl PBS containing 50 µg/ml PI (Calbiochem # 537059), then the samples are incubated at 37°C for 30 minutes and subsequently analyzed on a FACSCalibur™ monitoring linear PI fluorescence activity on FL2.. The readout allows the detection of a possible direct or indirect influence of the tested compounds on the cell cycle. The following events can occur: a) Generation of a subG1 peak indicative for DNA fragmentation, b) increase of the cell population arrested in G2M phase. Both events are scored by 1 for weak and 2 for strong occurrence. 0 indicates no occurrence at all. […]

Jurkat = test: PI staining for cell cycle distribution; parameters: key: 0 indicates no occurrence at all; 1 for weak; 2 for strong occurrence; settings: Jurkat 3 uM, 24 h
Description: as §1

HeLa [2] = test: Hoechst 33342 nuclear staining (Table 3); parameters: key: 0 relating to no activity; 1 relating to weak activity comprising less than 50% of the cells; score 2 relating to strong activity comprising more than 50% of the cells
Summary of the method: (§2)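 Adherent cells (3-5×10^3, pre-spread 24 h) or suspension cells (8-10×10^3) treated with compounds at 10, 3, 1 and 0.3 µM for 24 or 48 h, then Hoechst 33342 stained for 30 min. Apoptotic nuclear morphology scored by fluorescence microscopy: 0 none, 1 weak (<50% cells), 2 strong (>50% cells).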

K562 = test: Hoechst 33342 nuclear staining (Table 3); parameters: key: 0 relating to no activity; 1 relating to weak activity comprising less than 50% of the cells; score 2 relating to strong activity comprising more than 50% of the cells
Summary of the method: as §2

SMILES | G2M (increase of the cell population arrested in G2M phase) (HeLa [1]) | subG1 (generation of a subG1 peak indicative for DNA fragmentation) (HeLa [1]) | G2M (increase of the cell population arrested in G2M phase) (Jurkat) | subG1 (generation of a subG1 peak indicative for DNA fragmentation) (Jurkat) | Hoechst 33342 nuclear staining (HeLa [2]; 24h, conc 0.3 (µM)) | Hoechst 33342 nuclear staining (HeLa [2]; 24h, conc 1 (µM)) | Hoechst 33342 nuclear staining (HeLa [2]; 24h, conc 3 (µM)) | Hoechst 33342 nuclear staining (HeLa [2]; 24h, conc 10 (µM)) | Hoechst 33342 nuclear staining (HeLa [2]; 48h, conc 0.3 (µM)) | Hoechst 33342 nuclear staining (HeLa [2]; 48h, conc 1 (µM)) | Hoechst 33342 nuclear staining (HeLa [2]; 48h, conc 3 (µM)) | Hoechst 33342 nuclear staining (HeLa [2]; 48h, conc 10 (µM)) | Hoechst 33342 nuclear staining (K562; K562, 24h, conc 0.3 (µM)) | Hoechst 33342 nuclear staining (K562; K562, 24h, conc 1 (µM)) | Hoechst 33342 nuclear staining (K562; K562, 24h, conc 3 (µM)) | Hoechst 33342 nuclear staining (K562; K562, 24h, conc 10 (µM)) | Hoechst 33342 nuclear staining (K562; K562, 48h, conc 0.3 (µM)) | Hoechst 33342 nuclear staining (K562; K562, 48h, conc 1 (µM)) | Hoechst 33342 nuclear staining (K562; K562, 48h, conc 3 (µM)) | Hoechst 33342 nuclear staining (K562; K562, 48h, conc 10 (µM))
COc1cc2c(cc1OC)-c1c(Cl)c3nc4ccccc4nc3n1C(C)C2 (stereo not shown) [compound 12] | 0 | 0 | 0 | 0 | 0 | 0 | 0 | 0 | 0 | 1 (1 relating to weak activity comprising less than 50% of the cells) | 2 (score 2 relating to strong activity comprising more than 50% of the cells) | 2 (score 2 relating to strong activity comprising more than 50% of the cells) | 0 | 0 | 0 | 2 (score 2 relating to strong activity comprising more than 50% of the cells) | 0 | 1 (1 relating to weak activity comprising less than 50% of the cells) | 2 (score 2 relating to strong activity comprising more than 50% of the cells) | 2 (score 2 relating to strong activity comprising more than 50% of the cells)
CCC1Cc2cc(OC)c(OC)cc2-c2cc3nc4ccccc4nc3n21 (stereo not shown) [compound 13] | 0 | 0 | 0 | 0 | 0 | 0 | 0 | 0 | 0 | 0 | 2 (score 2 relating to strong activity comprising more than 50% of the cells) | 2 (score 2 relating to strong activity comprising more than 50% of the cells) | 0 | 0 | 0 | 2 (score 2 relating to strong activity comprising more than 50% of the cells) | 0 | 0 | 1 (1 relating to weak activity comprising less than 50% of the cells) | 2 (score 2 relating to strong activity comprising more than 50% of the cells)
